Source: US20230149562A1 (priority 2020, published 2023)

Experiments:
[1] = test system: Influenza A virus (PR/8/34); assay: Hemagglutinin Inhibition Assay (HAI) on vaccinated animal sera
Method: HAI tests were performed on vaccinated animal sera according to the standard recommended WHO protocol [World Health Organization. […] Sera were treated with receptor destroying enzyme (Denka Seiken Co. Ltd, Tokyo, Japan) at 37° C. overnight then heat inactivated for 30 minutes at 56° C. After cooling down to RT, those serum samples were mixed with 2 volume of 25% suspension of turkey red blood cells (RBC, Rockland Immunochemicals) and incubated at room temperature for 2 hours followed by centrifugation to remove RBC. The treated sera, now considered to be at a 1:10 dilution, were serially diluted and incubated with 4 HA units of inactivated Influenza A virus (PR/8/34, Virusys #IAV210) for 30 minutes at room temperature. An equal volume of 0.5% turkey RBC was added to each well and incubated for 30 minutes at room temperature.

293T cells = assay: In vitro SEAP expression via QuantiBlue assay, DNA nanoparticles; format: cell-based; conditions: 24 hours post-treatment
Method: To test the ability of these nanoparticles to express SEAP in vitro, 293T cells were treated with nanoparticles. Each well of a 96 well dish of 293 Ts was treated with 10 μL (approximately 0.25 μg) of each formulation product diluted into a final volume of 200 μL with a 1:1 Optimem:PBS mix. The nontreated wells had 200 μL of 50/50 PBS/OptiMEM. Twenty four hours post-treatment or transfection, conditioned media from each culture was collected. Media was analyzed using the QuantiBlue assay (InvivoGen). 180 μL QuantiBlue reagent was combined with 50 μL of media from wells. Readings were taken after 40 minutes by measuring absorbance at 650 nm as directed by the manufacturer's protocol. For the no treatment Negative Control, 50 μL of media from a well not treated with nanoparticles was added to 180 μL QuantiBlue Reagent. These samples were treated the same way as all other samples in all steps of the assay.
FIG. 11 illustrates in vitro SEAP expression of nanoparticle formulations with modified dendrimers used to treat 293T cells.

| Compound | average HI titer ([1]; week 4, after prime vaccination, 5 μg nanoparticle vaccine, HA mRNA) | average HI titer ([1]; week 5, one week after boost immunization, 5 μg) | in vitro SEAP expression (293T cells) |
| --- | --- | --- | --- |
| CCCCCCCC/C=C\CCCCCCCC(=O)NCCCN(C)CCCNC(=O)OCC(C)(COC(=O)NCCCN(C)CCCNC(=O)CCCCCCC/C=C\CCCCCCCC)C(=O)OCC(CC)(COC(=O)C(C)(COC(=O)NCCCN(C)CCCNC(=O)CCCCCCC/C=C\CCCCCCCC)COC(=O)NCCCN(C)CCCNC(=O)CCCCCCC/C=C\CCCCCCCC)COC(=O)C(C)(COC(=O)NCCCN(C)CCCNC(=O)CCCCCCC/C=C\CCCCCCCC)COC(=O)NCCCN(C)CCCNC(=O)CCCCCCC/C=C\CCCCCCCC [PE-Oleic] | 40 | 192 | resulted in SEAP expression |
| CCCCCCCCCCCCCCCCC(=O)NCCCN(C)CCCNC(=O)OCC(C)(COC(=O)NCCCN(C)CCCNC(=O)CCCCCCCCCCCCCCCC)C(=O)OCC(CC)(COC(=O)C(C)(COC(=O)NCCCN(C)CCCNC(=O)CCCCCCCCCCCCCCCC)COC(=O)NCCCN(C)CCCNC(=O)CCCCCCCCCCCCCCCC)COC(=O)C(C)(COC(=O)NCCCN(C)CCCNC(=O)CCCCCCCCCCCCCCCC)COC(=O)NCCCN(C)CCCNC(=O)CCCCCCCCCCCCCCCC [PE-Heptadecanoic] |  |  | resulted in SEAP expression |
